Patent US20260034119A1, “5-METHOXY-N,N-[…][…], THEIR […], AND METHODS FOR TREATMENT OF NEUROLOGICAL, […], AND SUBSTANCE USE DISORDERS” (priority 2023, published 2026)
“And” between values parts separate entries of the source, which are not always exact repeats. Equal entries are not always repeated.

Target: T1, human 5-HT1A (Homo sapiens, UniProt P08908)
T1 sequence (P08908 1-422): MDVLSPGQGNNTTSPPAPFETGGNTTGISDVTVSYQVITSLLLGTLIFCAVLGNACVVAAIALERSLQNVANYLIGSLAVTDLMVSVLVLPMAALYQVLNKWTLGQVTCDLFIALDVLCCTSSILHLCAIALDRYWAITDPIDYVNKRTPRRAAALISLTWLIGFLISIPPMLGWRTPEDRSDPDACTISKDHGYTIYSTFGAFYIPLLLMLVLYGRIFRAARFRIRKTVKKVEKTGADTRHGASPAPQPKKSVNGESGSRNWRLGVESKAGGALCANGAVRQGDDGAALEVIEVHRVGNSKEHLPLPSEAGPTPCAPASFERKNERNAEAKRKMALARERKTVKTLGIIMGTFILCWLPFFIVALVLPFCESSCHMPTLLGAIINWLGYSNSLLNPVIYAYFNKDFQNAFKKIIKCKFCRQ
Experiment: 5-HT1A-mediated cAMP reduction assay (GloSensor, HEK293-T)
Conditions: Activity (5-HT1A cAMP) EC50 (nM), Table 5

Point of comparison: `CCN(CC)CCc1c[nH]c2ncccc12` [Compound 73, N,N-diethyl-2-(1H-pyrrolo[2,3-b]pyridin-3-yl)ethan-1-amine], EC50 7800 nM. Against it:
- CN(C)CCc1c[nH]c2ncccc12 [Compound 72, N,N-dimethyl-2-(1H-pyrrolo[2,3-b]pyridin-3-yl)ethan-1-amine] — 4.1-fold lower, 1910 nM
- c1cnc2[nH]cc(CCN3CCCC3)c2c1 [Compound 74, 3-(2-(pyrrolidin-1-yl)ethyl)-1H-pyrrolo[2,3-b]pyridine] — 2.4-fold lower, 3240 nM
- c1cnc2[nH]cc(CCN3CCCCC3)c2c1 [Compound 75, 3-(2-(piperidin-1-yl)ethyl)-1H-pyrrolo[2,3-b]pyridine] — 2.4-fold higher, 18500 nM
- COc1ccc2occ(CCN(C)C)c2c1 [Compound 76, 2-(5-methoxybenzofuran-3-yl)-N,N-dimethylethan-1-amine] — 44-fold lower, 178 nM
- COc1ccc2occ(CCN3CCCC3)c2c1 [Compound 77, 1-(2-(5-methoxybenzofuran-3-yl)ethyl)pyrrolidine] — 1100-fold lower, 7.19 nM
- COc1ccc2occ(CCN3CCCCC3)c2c1 [Compound 78, 1-(2-(5-methoxybenzofuran-3-yl)ethyl)piperidine] — 19-fold lower, 416 nM
- COc1ccc2occ(CCN3CC=CCC3)c2c1 [Compound 79, 1-(2-(5-methoxybenzofuran-3-yl)ethyl)-1,2,3,6-tetrahydropyridine] — within 1.5-fold, 7130 nM

Same assay, conditions: EC50 (nM) Mean Gio(cAMP)-1A, Table 2

Point of comparison: `CCN(CC)CCc1c[nH]c2ccc(O)c(F)c12` [Compound 17], EC50 0.76 nM. Against it:
- COc1ccc2[nH]cc(CCN3C[C@H]4C=C[C@@H]3CC4)c2c1F [Compound 14] — 230-fold higher, 173 nM
- CC[C@H]1C[C@@H]2C=C[C@H]1N(CCc1c[nH]c3ccc(OC)c(F)c13)C2 [Compound 15] — 62-fold higher, 47.3 nM
- Oc1ccc2[nH]cc(CCN3CCCC3)c2c1F [Compound 18] — 19-fold lower, 0.04 nM
- COc1ccc2c(c(CCN3CCCC3)cn2C)c1F [Compound 19] — 130-fold higher, 100 nM

Same assay, conditions: Table 6, commercial ligands

`CC1(C)CC(=O)N(CCCCN2CCN(c3ncccn3)CC2)C(=O)C1` [Gepiron, Gepirone, reference compound] was tested, and the “Efficacy as %5HT 5-HT1A cAMP” value was 95.4 %5HT.

Same assay, conditions: pEC50 Gio(cAMP)-1A, Table 2

Point of comparison: `Oc1ccc2[nH]cc(CCN3CCCC3)c2c1F` [Compound 18], EC50 0.0417 nM. Against it:
- CC[C@H]1C[C@@H]2C=C[C@H]1N(CCc1c[nH]c3ccc(OC)c(F)c13)C2 [Compound 15] — 1100-fold higher, 46.8 nM

Target: 5-HT1A (Homo sapiens, UniProt P08908)
Experiment: BRET signaling assay: 5-HT1A-mediated activation of heterotrimeric Gi1 (TRUPATH, HEK293-T)
Conditions: EC50 (nM), Gi1 BRET, 5-HT1A WT

With `CN(C)CCc1c[nH]c2ccc(O)cc12` [Bufotenine (5-OH-DMT), Bufotenine, reference compound] the EC50 was 9.29 nM.

Same assay, conditions: Gi BRET EC50

Point of comparison: `CCN(CC)CCc1c[nH]c2ccc(OC)cc12` [Compound 11, 5-MeO-DET], EC50 37.1 nM. Against it:
- COc1ccc2[nH]cc(CCN3CC=CC3)c2c1F [Compound 37, 3-(2-(2,5-dihydro-1H-pyrrol-1-yl)ethyl)-4-fluoro-5-methoxy-1H-indole] — 170-fold lower, 0.22 nM

Same assay, conditions: HEK-293T, read-out: Emax, 5-HT1A-mediated activation of Gi1 (BRET)

Work on `O=C1CCc2ccc(OCCCCN3CCN(c4cccc(Cl)c4Cl)CC3)cc2N1` [Aripiprazole, aripiprazole, reference compound] yielded an Emax of 77.1%.

Same assay, conditions: Table 6, commercial ligands

For `O=C1CCc2ccc(OCCCCN3CCN(c4cccc(Cl)c4Cl)CC3)cc2N1` [Aripiprazole, aripiprazole, reference compound], the “Efficacy as %5HT 5-HT1A BRET Gi1” value was 77.1 %5HT.

Same assay, conditions: read-out: Gi BRET EC50

In the case of `COc1ccc2[nH]cc(CCN3CCCCC3)c2c1` [Compound 5-MeO-PipT, 5-methoxypiperidinyl-tryptamine], the EC50 is reported as 88.5 nM.

Same assay, conditions: relative to 5-MeO-PyrT

In the case of `COc1ccc2[nH]cc(CCN3CCCCC3)c2c1` [Compound 5-MeO-PipT, 5-methoxypiperidinyl-tryptamine], the “loss of potency at 5-HT1A” value is reported as about 42 fold.

Target: 5-HT2A (Homo sapiens, UniProt P28223)
Experiment: cell-based
Conditions: not given

Chain of 5-HT2A (P28223 whole entry): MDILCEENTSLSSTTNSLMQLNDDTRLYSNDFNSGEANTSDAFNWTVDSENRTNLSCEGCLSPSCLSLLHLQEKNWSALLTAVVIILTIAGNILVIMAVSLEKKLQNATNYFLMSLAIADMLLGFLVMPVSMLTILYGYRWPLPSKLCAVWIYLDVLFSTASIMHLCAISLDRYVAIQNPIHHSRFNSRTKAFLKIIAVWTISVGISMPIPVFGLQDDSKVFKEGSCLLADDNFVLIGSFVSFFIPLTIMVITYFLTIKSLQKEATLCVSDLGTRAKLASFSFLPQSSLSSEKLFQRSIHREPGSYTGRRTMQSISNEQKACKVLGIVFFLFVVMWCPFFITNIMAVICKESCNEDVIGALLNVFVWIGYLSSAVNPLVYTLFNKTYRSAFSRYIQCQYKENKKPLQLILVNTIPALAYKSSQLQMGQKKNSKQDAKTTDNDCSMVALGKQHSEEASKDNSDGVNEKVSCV

In the case of `CN(C)CCc1c[nH]c2ccccc12` [Compound 1], the EC50 is reported as 94.4 nM and 93.3 nM.

With `COc1ccc2[nH]cc(CCN3CC=CC3)c2c1F` [Compound 37, 3-(2-(2,5-dihydro-1H-pyrrol-1-yl)ethyl)-4-fluoro-5-methoxy-1H-indole] the EC50 was 120 nM.

Target: T1, human 5-HT1A
Experiment: cell-based
Conditions: not given

Point of comparison: `COc1ccc2[nH]cc(CCN3CC=CC3)c2c1F` [Compound 37, 3-(2-(2,5-dihydro-1H-pyrrol-1-yl)ethyl)-4-fluoro-5-methoxy-1H-indole], EC50 0.00229 nM. Against it:
- CCN(C)CCc1c[nH]c2ccccc12 [Compound 2] — far higher, 302 nM
- CC(C)N(C)CCc1c[nH]c2ccccc12 [Compound 3] — far higher, 1980 nM
- CC(C)N(CCc1c[nH]c2ccccc12)C(C)C [Compound 4] — far higher, 1330 nM
- c1ccc2c(CCN3CCCC3)c[nH]c2c1 [Compound 5] — 8300-fold higher, 19.1 nM
- c1ccc2c(CCN3CCCCC3)c[nH]c2c1 [Compound 6] — far higher, 485 nM
- C1=CC2CCC1CN2CCc1c[nH]c2ccccc12 (centres unmarked) [Compound 7] — far higher, 15500 nM
- C=CCN(CC=C)CCc1c[nH]c2ccc(OC)cc12 [Compound 17] — 2000-fold higher, 4.66 nM
- COc1ccc2[nH]cc(CCN3CCCC3C)c2c1 (centres unmarked) [Compound 19] — 1000-fold higher, 2.4 nM
- COc1ccc2[nH]cc(CCn3ccnc3)c2c1 [Compound 22, 3-(2-(1H-imidazol-1-yl)ethyl)-5-methoxy-1H-indole] — far higher, 292 nM
- COc1ccc2[nH]cc(CCN3CC=CCC3)c2c1 [Compound 23, 3-(2-(3,6-dihydropyridin-1(2H)-yl)ethyl)-5-methoxy-1H-indole] — 3800-fold higher, 8.77 nM
- COc1ccc2[nH]cc(CCN3C[C@H]4C=C[C@@H]3CC4)c2c1 [Compound 24] — far higher, 628 nM
- COc1ccc2[nH]cc(CCN3C[C@H]4C=C[C@@H]3CC4)c2c1F [Compound 38, (1S,4R)-2-(2-(4-fluoro-5-methoxy-1H-indol-3-yl)ethyl)-2-azabicyclo[2.2.2]oct-5-ene] — 76000-fold higher, 173 nM
- COc1ccc2c(c1)c(CCN1CCCC1)cn2C [Compound 43, 5-methoxy-1-methyl-3-(2-(pyrrolidin-1-yl)ethyl)-1H-indole] — 39000-fold higher, 89.1 nM
- COc1ccc2c(c1)c(CCN1CC=CC1)cn2C [Compound 44, 3-(2-(2,5-dihydro-1H-pyrrol-1-yl)ethyl)-5-methoxy-1-methyl-1H-indole] — 91000-fold higher, 209 nM
- COc1ccc2c(c1)c(CCn1cccc1)cn2C [Compound 45, 3-(2-(1H-pyrrol-1-yl)ethyl)-5-methoxy-1-methyl-1H-indole] — far higher, 6580 nM
- COc1ccc2c(c(CCN3CCCC3)cn2C)c1F [Compound 46, 4-fluoro-5-methoxy-1-methyl-3-(2-(pyrrolidin-1-yl)ethyl)-1H-indole] — 44000-fold higher, 100 nM
- COc1ccc2c(c(CCN3CC=CC3)cn2C)c1F [Compound 47, 3-(2-(2,5-dihydro-1H-pyrrol-1-yl)ethyl)-4-fluoro-5-methoxy-1-methyl-1H-indole] — 1200-fold higher, 2.74 nM
- c1ccc(COc2ccc3[nH]cc(CCN4CCCC4)c3c2)cc1 [Compound 48, 5-(benzyloxy)-3-(2-(pyrrolidin-1-yl)ethyl)-1H-indole] — 14000-fold higher, 33 nM
- Oc1ccc2[nH]cc(CCN3C[C@H]4C=C[C@@H]3CC4)c2c1 [Compound 51, 3-(2-((1S,4R)-2-azabicyclo[2.2.2]oct-5-eN-2-yl)ethyl)-1H-indol-5-ol] — 65000-fold higher, 149 nM
- CCN(C)CCc1c[nH]c2cccc(O)c12 [Compound 53, 4-OH-MET] — far higher, 769 nM
- COc1cccc2[nH]cc(CCN(C)C)c12 [Compound 54, 2-(4-methoxy-1H-indol-3-yl)-N,N-dimethylethan-1-amine] — far higher, 558 nM
- COc1cccc2[nH]cc(CCN3CCCC3)c12 [Compound 55, 4-methoxy-3-(2-(pyrrolidin-1-yl)ethyl)-1H-indole] — 72000-fold higher, 164 nM
- CN(C)CCc1c[nH]c2cccc(F)c12 [Compound 57, 2-(4-fluoro-1H-indol-3-yl)-N,N-dimethylethan-1-amine] — 38000-fold higher, 87.7 nM
- Fc1cccc2[nH]cc(CCN3CCCC3)c12 [Compound 58, 4-fluoro-3-(2-(pyrrolidin-1-yl)ethyl)-1H-indole] — 7300-fold higher, 16.7 nM
- COc1ccc2c(CCN(C)C)c[nH]c2c1 [Compound 60, 2-(6-methoxy-1H-indol-3-yl)-N,N-dimethylethan-1-amine] — far higher, 3240 nM
- COc1ccc2c(CCN3CCCC3)c[nH]c2c1 [Compound 61, 6-methoxy-3-(2-(pyrrolidin-1-yl)ethyl)-1H-indole] — far higher, 492 nM
- COc1ccc2c(CCN3CC=CC3)c[nH]c2c1 [Compound 62, 3-(2-(2,5-dihydro-1H-pyrrol-1-yl)ethyl)-6-methoxy-1H-indole] — 13000-fold higher, 30.9 nM
- c1[nH]c2cc3c(cc2c1CCN1CCCC1)OCO3 [Compound 64, 7-(2-(pyrrolidin-1-yl)ethyl)-5H-[1,3]dioxolo[4,5-f]indole] — 1500-fold higher, 3.5 nM
- C1=CC2CCC1CN2CCc1c[nH]c2cc3c(cc12)OCO3 (centres unmarked) [Compound 65] — far higher, 9890 nM
- CCC1C[C@@H]2C=C[C@H]1N(CCc1c[nH]c3cc4c(cc13)OCO4)C2 (stereo partly drawn) [Compound 66, 7-(2-((1S,4R)-7-ethyl-2-azabicyclo[2.2.2]oct-5-en-2-yl)ethyl)-5H-[1,3]dioxolo[4,5-f]indole] — far higher, 1690 nM
- Cc1cccc2c(CCN(C)C)c[nH]c12 [Compound 70, N,N-dimethyl-2-(7-methyl-1H-indol-3-yl)ethan-1-amine] — far higher, 1210 nM

`CC[C@H]1C[C@@H]2C=C[C@H]1N(CCc1c[nH]c3ccc(OC)c(F)c13)C2` [Compound 39, (1S,4R,7S)-7-ethyl-2-(2-(4-fluoro-5-methoxy-1H-indol-3-yl)ethyl)-2-aza bicyclo[2.2.2]oct-5-ene] was tested, and the EC50 was 47.3 nM and 46.8 nM.
`Oc1ccc2[nH]cc(CCN3CCCC3)c2c1F` [Compound 42, 4-fluoro-3-(2-(pyrrolidin-1-yl)ethyl)-1H-indol-5-ol] was tested, and the EC50 was 0.04 nM and 0.0417 nM.
`Oc1ccc2[nH]cc(CCN3CCCC3)c2c1` [Compound 50, 3-(2-(pyrrolidine-1-yl)ethyl)-1H-indol-5-ol] was tested, and the EC50 was 0.1 nM and 0.0977 nM.
For `CN(C)CCc1c[nH]c2cc3c(cc12)OCO3` [Compound 63, 2-(5H-[1,3]dioxolo[4,5-f]indol-7-yl)-N,N-dimethylethan-1-amine], the EC50 was 64.4 nM and 64.6 nM.
In the case of `CCN(C)CCc1c[nH]c2ccc(SC)cc12` [Compound 68, N-ethyl-N-methyl-2-(5-(methylthio)-1H-indol-3-yl)ethan-1-amine], the EC50 is reported as 3.35 nM and 3.31 nM.
